Measured values as given in PMC8169660, “Flavin-dependent halogenases catalyze enantioselective olefin halocyclization” (Nature Communications, 2021).

Biological target: T1, RebH variant 4V + S (Lentzea aerocolonigenes, UniProt Q8KHZ8, F111S/N470S, form not given)
T1 construct: evolved RebH variant 4V + S; pET28b in E. coli BL21(DE3) + pGro7, Ni-NTA purified (His-tagged)
Assay: initial rates of bromolactonization, product 1a by UPLC
Assay type: biochemical
Conditions: NaBr (5 eq), NAD and FAD 100 uM, MBP-RebF 2.5 uM, glucose dehydrogenase, glucose 20 mM; 4V + S 20 uM; room temperature

T1 sequence (Q8KHZ8 whole entry F111S/N470S, form open): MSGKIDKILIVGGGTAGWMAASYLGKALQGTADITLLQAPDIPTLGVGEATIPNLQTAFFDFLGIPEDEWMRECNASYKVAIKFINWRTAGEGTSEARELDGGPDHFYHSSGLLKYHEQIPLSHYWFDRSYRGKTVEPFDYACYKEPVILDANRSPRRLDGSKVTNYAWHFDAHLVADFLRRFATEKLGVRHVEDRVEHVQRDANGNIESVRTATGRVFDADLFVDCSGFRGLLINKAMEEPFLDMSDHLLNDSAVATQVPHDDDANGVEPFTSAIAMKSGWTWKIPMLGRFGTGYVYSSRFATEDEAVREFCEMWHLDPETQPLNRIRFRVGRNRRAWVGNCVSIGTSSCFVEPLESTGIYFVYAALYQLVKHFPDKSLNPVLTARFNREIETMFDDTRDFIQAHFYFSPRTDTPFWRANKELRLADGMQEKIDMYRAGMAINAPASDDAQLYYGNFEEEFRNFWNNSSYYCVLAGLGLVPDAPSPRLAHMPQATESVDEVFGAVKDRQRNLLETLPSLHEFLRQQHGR

Km: 470 µM
Compound: C=C(CCC(=O)O)c1ccc(OC)cc1 [compound 1, 4-methoxyphenyl-4-pentenoic acid]
